This passage reports IC50 and EC50 results from patent US20250109140A1, “5-[5-(PIPERIDIN-4-YL)THIENO[3,2-C]PYRAZOL-2-YL]INDAZOLE DERIVATIVES AND RELATED COMPOUNDS AS MODULATORS FOR SPLICING NUCLEIC ACIDS AND FOR THE TREATMENT OF PROLIFERATIVE DISEASES” (REMIX THERAPUTICS INC., priority 2022, published 2025).

Each structure is given as a SMILES string. pEC50, pIC50: −log10 of the molar value. Where two headings read alike, the source gives them in different places.

In test [1] the test system is Target C mRNA. Description: Splicing RT-qPCR gene panel, Target C canonical junction (CJ) mRNA. Format: cell-based. The conditions noted are these: Homo sapiens; Table 8; larger gene panel, decrease in CJ mRNA levels. The gist of the method:
(§1)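 A673/K562; 11-pt 3-fold dil., top 10 uM final, ≤0.25% DMSO; 24 h, 37 °C, 5% CO2. Lysis, then RT-qPCR of CJ/AJ isoforms, ≥duplicate. ΔCt vs housekeeper (GAPDH/GUSB/PPIA), ΔΔCt vs DMSO, RQ = 2^(−ΔΔCt), expressed as % response.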
(Quantitative PCR measures a nucleic acid by following its amplification.)

Test [2] has as its system SMN2 mRNA. Description: Splicing RT-qPCR gene panel, SMN2 canonical junction (CJ) mRNA. Format: cell-based. The conditions noted are these: Homo sapiens; Table 8; larger gene panel, decrease in CJ mRNA levels. The gist of the method: as §1
Test [3] has as its system HiBiT-tagged MYB protein. Put plainly: HiBiT protein abundance assay, MYB (K562 HiBiT knock-in cells). The conditions noted are these: 24 hours treatment. Format: cell-based, human. The gist of the method:
(§2)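 Luminescence from the Nano-Glo HiBiT lytic reagent measured tagged protein remaining in knock-in K562 cells after 24 h compound exposure (top dose 10 µM final, 3-fold, 10 points). Responses normalized between parental K562 and DMSO-treated lines were fit by four-parameter logistic to interpolate the 50% concentration.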
A general note: With HiBiT, luminescence reflects the tagged protein that the partner subunit can reach.

For test [4], the system named is HTT mRNA. Description: Splicing RT-qPCR assay, HTT canonical (CJ) and alternative (AJ) junction mRNA. Format: cell-based. The following applies: Homo sapiens; for pEC50: AC50 = 50% response in AJ mRNA increase. The gist of the method:
as §1

Test [5] relates to MYB mRNA. Description: Splicing RT-qPCR assay, MYB canonical (CJ) and alternative (AJ) junction mRNA. Format: cell-based. The following applies: Homo sapiens; for pEC50: AC50 = 50% response in AJ mRNA increase. The gist of the method:
as §1

In test [6] the test system is Target C. Description: HiBiT protein abundance assay, Target C (K562 HiBiT knock-in cells). Format: cell-based, human. The following applies: 24 hours treatment. The gist of the method: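 The readout was Nano-Glo HiBiT lytic luminescence after 24 h compound exposure at 37 °C, in 10000 K562 knock-in cells/well. Compounds ran as 10-point, 3-fold series, top final […], ≤0.25% DMSO. Responses were scaled between parental K562 and DMSO-treated controls, and IC50 was interpolated at 50% from four-parameter logistic curves.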

Test [7] concerns HiBiT-tagged HTT protein. Put plainly: HiBiT protein abundance assay, HTT (K562 HiBiT knock-in cells). The class given is cell-based, human. The following applies: 24 hours treatment. The gist of the method: as §2
Test [8] has as its system K562 (human chronic myelogenous leukemia) cells. Put plainly: Cell viability, Cell Titer Glo 2.0 assay, K562 cells. Format: cell-based. The following applies: 72 hours. The gist of the method:
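Luminescent Cell Titer Glo 2.0 readout after 72 h exposure (37° C, 5% CO2), medium-only wells as blank. Cells plated 500/well in IMDM with 10% FBS; test compounds diluted from DMSO series 1:100 into medium, 0.1% DMSO final.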
For orientation: ATP-based viability assays read luminescence as a measure of living cells.

[9] abbreviates: Table 7, RT-qPCR, A673 or K562 cells, 24 hours treatment.
[10] abbreviates: Table 7, IC50 = 50% response in CJ mRNA decrease, RT-qPCR, A673 or K562 cells, 24 hours treatment, read-out: HTT CJ.
[11] abbreviates: Table 8, larger gene panel, decrease in CJ mRNA levels, read-out: HTT CJ IC50.
Where [12] appears, read: Table 7, IC50 = 50% response in CJ mRNA decrease, RT-qPCR, A673 or K562 cells, 24 hours treatment, read-out: MYB CJ.
Setting [13] is: Table 8, larger gene panel, decrease in CJ mRNA levels, read-out: MYB CJ IC50.

Regarding `COc1c(-c2nc3cn(C4CCNCC4)nc3s2)cc2cn(C)nc2c1C` [Compound 1103], the pIC50 in test [1], in test [2], in test [3], in test [4] (setting [10]), in test [4] (setting [11]) and in test [5] (setting [12]) was 5.00 to 6.00 in each case. The pIC50 in test [5] (setting [13]), in test [6], in test [7] and in test [8] was 5.00 to 6.00 throughout. Further, the pEC50 in test [4] (setting [9]) and in test [5] (setting [9]) was 5.00 to 6.00 in each case.
In the case of `Cc1nc2cc(O)c(-c3nc4cn(C5CCNCC5)nc4s3)cc2o1` [Compound 1104], the pIC50 is 5.00 to 6.00 in test [1]; greater than 7.00 in test [2]; 5.00 to 6.00 in test [3]; 6.00 to 7.00 in test [4] (setting [10]); 6.00 to 7.00 in test [4] (setting [11]); 5.00 to 6.00 in test [5] (setting [12]). Further, the pIC50 in test [5] (setting [13]) was 5.00 to 6.00; in test [6], 6.00 to 7.00; in test [7] it was greater than 7.00; in test [8], 5.00 to 6.00. Further, the pEC50 (commonly the negative decadic logarithm of the EC50, by convention in mol/L) is 6.00 to 7.00 in test [4] (setting [9]) and 5.00 to 6.00 in test [5] (setting [9]).
On to `Cc1cn2cc(-c3nc4cn(C5CCNCC5)nc4s3)nc(C)c2n1` [Compound 1105, 4-(5-{2,8-dimethylimidazo[1,2-a]pyrazin-6-yl}pyrazolo[4,3-d][1,3]thiazol-2-yl)piperidine], for which the pIC50 in test [1] is less than 5.00; in test [2] it was 5.00 to 6.00; in test [3] it was 5.00 to 6.00; in test [4] (setting [10]) it was less than 5.00; in test [4] (setting [11]), less than 5.00; in test [5] (setting [12]) it was less than 5.00. In addition, the pIC50 in test [5] (setting [13]) is less than 5.00; in test [6] it was less than 5.00; in test [7], 5.00 to 6.00; in test [8], less than 5.00. Further, the pEC50 in test [4] (setting [9]) and in test [5] (setting [9]) was less than 5.00 in each case.
For the molecule `Cc1cc(-n2cc3nc(C4CCNCC4)sc3n2)cc2cn(C)nc12` [Compound 1106], the pIC50 in test [1] is less than 5.00; in test [2], 5.00 to 6.00; in test [3] it was 5.00 to 6.00; in test [4] (setting [10]), 5.00 to 6.00; in test [4] (setting [11]), 5.00 to 6.00; in test [5] (setting [12]), less than 5.00. Further, the pIC50 in test [5] (setting [13]) was less than 5.00; in test [6], 5.00 to 6.00; in test [7], 5.00 to 6.00; in test [8] it was less than 5.00. The negative-log EC50 (pEC50) in test [4] (setting [9]) and in test [5] (setting [9]) was 5.00 to 6.00 in each case.
For the molecule `Cn1cc2cc(-c3nc4cn(C5CCNCC5)nc4s3)c(O)c(F)c2n1` [Compound 1107], the pIC50 in test [1] was 6.00 to 7.00; in test [2], greater than 7.00; in test [3], 5.00 to 6.00; in test [4] (setting [10]), 6.00 to 7.00; in test [4] (setting [11]), 6.00 to 7.00; in test [5] (setting [12]), 6.00 to 7.00. In addition, the pIC50 in test [5] (setting [13]) was 6.00 to 7.00; in test [6], 6.00 to 7.00; in test [7], 6.00 to 7.00; in test [8] it was 5.00 to 6.00. Further, the pEC50 in test [4] (setting [9]) and in test [5] (setting [9]) was 6.00 to 7.00 each time.
Turning to `Cc1c(O)c(-c2nc3cn(C4CCNCC4)nc3s2)cc2cn(C)nc12` [Compound 1108, 2,7-dimethyl-5-(2-(piperidin-4-yl)-2H-pyrazolo[4,3-d]thiazol-5-yl)-2H-indazol-6-ol], the pIC50 in test [1], in test [2], in test [3], in test [4] (setting [10]), in test [4] (setting [11]) and in test [5] (setting [12]) was greater than 7.00 throughout. Moreover, the pIC50 was greater than 7.00 in test [5] (setting [13]), 5.00 to 6.00 in test [6], 5.00 to 6.00 in test [7] and 6.00 to 7.00 in test [8]. Moreover, the pEC50 in test [4] (setting [9]) and in test [5] (setting [9]) was greater than 7.00 throughout.
For `Cn1cc2cc(-n3cc4nc(C5CCNCC5)sc4n3)cc(F)c2n1` [Compound 1109], the pIC50 is less than 5.00 in test [1]; 5.00 to 6.00 in test [2]; 5.00 to 6.00 in test [3]; 5.00 to 6.00 in test [4] (setting [10]); 5.00 to 6.00 in test [4] (setting [11]); less than 5.00 in test [5] (setting [12]). Further, the pIC50 in test [5] (setting [13]) was less than 5.00; in test [6] it was 5.00 to 6.00; in test [7] it was 5.00 to 6.00; in test [8], less than 5.00. For the same molecule, the negative logarithm of the EC50 (pEC50) in test [4] (setting [9]) and in test [5] (setting [9]) was 5.00 to 6.00 in each case.
As to `Cn1cc2cc(-c3nc4cn(C5CCNCC5)nc4s3)c(O)cc2n1` [Compound 1110], the pIC50 was 6.00 to 7.00 in test [1]; greater than 7.00 in test [2]; 5.00 to 6.00 in test [3]; 6.00 to 7.00 in test [4] (setting [10]); greater than 7.00 in test [4] (setting [11]); 5.00 to 6.00 in test [5] (setting [12]). Further, the pIC50 in test [5] (setting [13]) was 6.00 to 7.00; in test [6] it was 5.00 to 6.00; in test [7], 6.00 to 7.00; in test [8], 5.00 to 6.00. Also, the results for the negative logarithm of the EC50 (pEC50) in test [4] (setting [9]) and in test [5] (setting [9]) were 6.00 to 7.00 and 5.00 to 6.00, respectively.
